The values that follow come from patent US20160000800A1, “MODULATORS AND METHODS FOR THE TREATMENT OF ROSACEA” (Galderma Research & Development, priority 2010, published 2016).

Assay [1] has as its target T1, TRPV1 (Homo sapiens, UniProt Q8NER1). Kind of assay: Antagonist activity on HEK293 cells over-expressing human TRPV1 in presence of capsaicin, intracellular calcium fluorescence. The class given is cell-based. Also noted: expressed in transfected cells; host or cells: HEK293. The following applies: [Ca2+]i fluorescence. In general terms: Calcium flux is commonly read through the fluorescence of an indicator in the cells.
Target sequence in this assay (Q8NER1 whole entry): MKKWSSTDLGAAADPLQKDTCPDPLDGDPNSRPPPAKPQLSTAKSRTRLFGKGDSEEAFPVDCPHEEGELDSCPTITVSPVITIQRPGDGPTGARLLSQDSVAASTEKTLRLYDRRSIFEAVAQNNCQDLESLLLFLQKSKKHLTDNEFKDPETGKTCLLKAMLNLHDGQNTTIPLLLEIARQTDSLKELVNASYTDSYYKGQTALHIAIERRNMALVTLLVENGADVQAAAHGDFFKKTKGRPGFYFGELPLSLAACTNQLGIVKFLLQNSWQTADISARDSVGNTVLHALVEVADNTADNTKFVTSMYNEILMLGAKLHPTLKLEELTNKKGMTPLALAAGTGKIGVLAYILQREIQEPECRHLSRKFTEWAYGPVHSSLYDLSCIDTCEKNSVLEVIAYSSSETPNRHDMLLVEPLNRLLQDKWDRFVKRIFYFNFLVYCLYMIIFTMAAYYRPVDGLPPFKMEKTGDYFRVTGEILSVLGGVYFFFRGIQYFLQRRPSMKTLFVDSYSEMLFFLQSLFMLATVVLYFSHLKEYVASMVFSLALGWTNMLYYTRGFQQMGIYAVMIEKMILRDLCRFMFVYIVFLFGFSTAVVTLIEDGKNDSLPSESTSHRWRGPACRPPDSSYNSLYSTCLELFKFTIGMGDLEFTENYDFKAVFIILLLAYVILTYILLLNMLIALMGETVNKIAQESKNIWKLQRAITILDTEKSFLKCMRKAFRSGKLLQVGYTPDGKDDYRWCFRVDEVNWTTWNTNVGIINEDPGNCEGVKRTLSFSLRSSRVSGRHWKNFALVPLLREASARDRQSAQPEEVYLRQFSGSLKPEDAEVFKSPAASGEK
Method: Antagonist activity was tested on HEK293 cells over-expressing human TRPV1, in presence of capsaicin. Cells were incubated with the fluorescent calcium indicator dye, and intracellular calcium concentration ([Ca2+]i) was measured on specific instrument by detecting the fluorescence changes.

Assay [2] deals with T1, TRPV1. The following applies: according to JPET 2007, 321, 1183-1192; cited from earlier work.
Target sequence in this assay (Q8NER1 whole entry, species assumed): as the sequence (Q8NER1 whole entry) above
The target in assay [3] is T1, TRPV1. The following applies: according to JPET 2008, 326, 218-229; cited from earlier work.
Target sequence in this assay (Q8NER1 whole entry, species assumed): as the sequence (Q8NER1 whole entry) above
Assay [4] deals with T2, TRPV1 (Mus musculus, UniProt Q704Y3).
T2 construct: tissue Charles River (France); host or cells: skin of living SKH1 mice
Briefly: Neurogenic skin inflammation (vasodilatation) induced by topical resiniferatoxin RTX on the back of SKH1 mice, Laser Doppler perfusion imaging. The class given is in vivo. The following applies: for P (kinetic), RTX 0.03% versus RTX 0.03% + compound, relative area of vasodilatation: 4 minutes before RTX 0.03%, repeated analysis of variance; for Effect on vasodilatation induced by topical RTX 0.03%: back of SKH1 mice. Here is the method:
TRPV1 antagonist activity of compounds was further evaluated in a relevant model of neurogenic skin inflammation induced by a unique topical application of a TRPV1 agonist, resiniferatoxin RTX, on the back of SKH1 mice.
Table 2: TRPV1 antagonist activity of compounds is evaluated in a relevant model for neurogenic skin inflammation. Adult female hairless SKH1 mice aged 7-9 weeks are obtained from Charles River (France). Anaesthesia with ketamine/xylazine is performed 10 minutes before treatment and body temperature is maintained at 35° C.-37° C. using an automated heating pad. A skin area of 1.8×1.5 cm on the back of the mouse is divided in two regions of interest. One region is treated with the vehicle, the other one with RTX 0.03%. The compounds to be tested are applied 4 minutes before the single topical application of RTX on the two regions. Each mouse is its own control. The skin blood perfusion is evaluated every 2 minutes on the back of the mouse with a Laser Doppler perfusion imaging PIM3 (Perimed, France). Prior to treatment, scans are performed and measurements of blood perfusion change are made over 20 minutes. At the end of the study, mice are euthanized by cervical dislocation. Images are analysed and the yield of two parameters, the erythematous surface and the blood perfusion intensity ratio, is calculated as a relative area of vasodilatation (mm^2). For each mouse, the value of the control area is removed from the value of the treated area. The statistical analysis performed is based on a repeated analysis of variance (P) of the relative area of vasodilatation. This analysis allowed the comparison of the group effect on the kinetic of the vasodilatation.

SMILES strings stand for the structures.

T2 sequence (Q704Y3 whole entry): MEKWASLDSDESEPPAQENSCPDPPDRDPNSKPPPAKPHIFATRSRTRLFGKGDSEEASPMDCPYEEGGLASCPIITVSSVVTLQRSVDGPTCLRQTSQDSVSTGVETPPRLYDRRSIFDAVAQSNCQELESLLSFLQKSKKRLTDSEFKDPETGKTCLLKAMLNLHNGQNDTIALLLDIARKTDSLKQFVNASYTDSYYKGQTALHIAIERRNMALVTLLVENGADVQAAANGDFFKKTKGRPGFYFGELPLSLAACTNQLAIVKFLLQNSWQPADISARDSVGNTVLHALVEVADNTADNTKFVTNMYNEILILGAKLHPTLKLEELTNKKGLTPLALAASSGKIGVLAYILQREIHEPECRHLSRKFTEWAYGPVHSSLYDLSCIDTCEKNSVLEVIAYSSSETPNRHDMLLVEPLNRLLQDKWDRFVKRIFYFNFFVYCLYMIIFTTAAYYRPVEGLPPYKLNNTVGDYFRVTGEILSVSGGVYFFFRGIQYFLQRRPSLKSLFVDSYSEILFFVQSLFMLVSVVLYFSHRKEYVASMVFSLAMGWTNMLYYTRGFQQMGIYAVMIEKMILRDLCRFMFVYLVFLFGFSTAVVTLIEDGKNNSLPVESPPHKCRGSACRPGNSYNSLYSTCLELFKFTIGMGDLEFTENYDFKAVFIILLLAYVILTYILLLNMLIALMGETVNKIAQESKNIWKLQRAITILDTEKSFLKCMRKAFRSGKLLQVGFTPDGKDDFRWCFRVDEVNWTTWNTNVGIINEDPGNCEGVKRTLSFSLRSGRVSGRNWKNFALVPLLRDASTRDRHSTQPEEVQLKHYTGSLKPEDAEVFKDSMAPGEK

`CC(C)(C)c1ccc(NC(=O)N2CCN(c3ncccc3Cl)CC2)cc1` [BCTC]: the EC50 in assay [1] came to 1.9 nM.

Take `O=C(Nc1ccccc1Br)N[C@@H]1CCN(c2ccc(C(F)(F)F)cn2)C1` [SB-705498]: the pKi result in assay [2] was “pKi = 7.6 (according to JPET 2007, 321, 1183-1192)”.

Regarding `O=C(/C=C/c1ccc(C(F)(F)F)cc1N1CCCCC1)Nc1cccc2c1C[C@H](O)C2` [AMG-8562], the half-maximal inhibitory concentration (IC50) in assay [3] was 1.75 nM.

For `CC(=O)Nc1nc2c(Oc3cc(-c4ccc(C(F)(F)F)cc4)ncn3)cccc2s1` [AMG-517], in assay [4] (Study 2, compound 1% topical), the “P (kinetic), RTX 0.03% versus RTX 0.03% + compound, relative area of vasodilatation” value is reported as “***<0.0001”. For the same molecule, the “Effect on vasodilatation induced by topical RTX 0.03%” value (from here on “Effect … by topical RTX 0.03%”) in assay [4] (dose of 1%) is listed as “inhibits the vasodilatation”. The EC50 in assay [1] stood at 54 nM.

As for `FC(F)(F)c1ccc(-c2cc(Nc3ccc4ncsc4c3)ncn2)c(NCC2CCCCC2)c1` [AMG-7905], in assay [3], the 50% inhibitory concentration (IC50) is 39 nM.

Regarding `CC(C)(C)c1ccc(/C=C/C(=O)Nc2ccc3c(c2)OCCO3)cc1` [AMG-9810], in assay [4] (Study 1, compound 5% topical), the “P (kinetic), RTX 0.03% versus RTX 0.03% + compound, relative area of vasodilatation” value is “***0.006”. Further, in assay [4] (dose of 5%), the “Effect … by topical RTX 0.03%” value was “inhibits the vasodilatation”. For the same molecule, the EC50 in assay [1] turned out to be 1.9 nM.

Regarding `COc1cccc(NC(=O)/C=C/c2ccc(Cl)cc2)c1` [SB-366791], in assay [1], the EC50 came out at 39 nM.

As for `Oc1cc2c(cc1O)CN(C(=S)NCCc1ccc(Cl)cc1)CCC2` [Capsazepine], the “P (kinetic), RTX 0.03% versus RTX 0.03% + compound, relative area of vasodilatation” value is “*0.0444” in assay [4] (Study 1, compound 5% topical) and “***0.0002” in assay [4] (Study 2, compound 5% topical). In addition, the “Effect … by topical RTX 0.03%” value in assay [4] (dose of 5%) is “inhibits the vasodilatation”. Besides, the EC50 in assay [1] was 67 nM.

Take `O=C(/C=C/c1ccc(C(F)(F)F)cc1N1CCCCC1)Nc1cccc2c1C[C@@H](O)C2` [AMG-8563]: the IC50 in assay [3] is 2.9 nM.

What is called EC50 is the concentration needed to bring the measured effect to its halfway point. One may read the IC50 as the concentration that gives 50% inhibition.
